Measured values reported in ChEMBL document CHEMBL6120958, “A Highly Atom-Efficient Prodrug Approach to Generate Synergy between H2S and Nonsteroidal Anti-inflammatory Drugs and Improve Safety” (J Med Chem, 2024).
Activity calls are given as the source filed them. No cut-off for these calls is given here.

Key:
[1] = Stability of the compound in PBS at 500 uM measured within 144 hrs at pH 7.4 at 37 degC by HPLC analysis; format: physicochemical; settings: buffer, pH 7.4, 144 h
[2] = Stability of the compound in PBS at 500 uM measured for 3 months at pH 7.4 at -20 degC by HPLC analysis; format: physicochemical; settings: buffer, pH 7.4, 2190 h
[3] = Stability of the compound in rat plasma assessed as half life by LC-MS/MS analysis; format: ADME, cell-free
[4] = Stability in Wistar rat assessed as parent drug level in blood at 10.5 mg/kg, po administered via gavage measured after 5 mins by LC-MS/MS analysis; format: ADME, organism-based; settings: in vivo
[5] = Drug metabolism in Wistar rat assessed as DCF level in blood at 10.5 mg/kg, po administered via gavage measured after 5 mins by LC-MS/MS analysis; format: ADME, organism-based; settings: in vivo
[6] = Drug metabolism in Wistar rat assessed as DCF level in blood at 10.5 mg/kg, po administered via gavage measured after 10 mins by LC-MS/MS analysis; format: ADME, organism-based; settings: in vivo
[7] = Oral bioavailability in Wistar rat at 10.5 mg/kg; format: ADME, organism-based; settings: in vivo
Rattus norvegicus [8] = test: Antiinflammatory activity against collagen-induced arthritis Wistar rat model assessed as reduction in toe swelling at 33.7 umol/kg, po administered for 28 days via gavage; format: functional, organism-based; settings: dose 33.7 µmol/kg, time 28.0 day
Rattus norvegicus [9] = test: Antiinflammatory activity against collagen-induced arthritis Wistar rat model assessed as reduction in IL-1 beta level in serum at 33.7 umol/kg, po administered for 28 days via gavage by ELISA; format: functional, organism-based; settings: dose 33.7 µmol/kg, time 28.0 day
Rattus norvegicus [10] = test: Antiinflammatory activity against collagen-induced arthritis Wistar rat model assessed as increase in IL-10 level in serum at 33.7 umol/kg, po administered for 28 days via gavage by ELISA; format: functional, organism-based; settings: dose 33.7 µmol/kg, time 28.0 day
[11] = Toxicity against collagen-induced arthritis Wistar rat model assessed as increase in body weight at 33.7 umol/kg, po administered for 28 days; format: organism-based; settings: in vivo, 672 h, at 33.7 µmol/kg, time 28 day
[12] = Toxicity against collagen-induced arthritis Wistar rat model assessed as preserved mucosa integrity without gastrointestinal damage at 33.7 umol/kg, po administered for 28 days by Hematoxylin-Eosin staining based analysis; format: organism-based; settings: in vivo, 672 h, dose 33.7 µmol/kg, time 28 day
[13] = Toxicity against collagen-induced arthritis Wistar rat model assessed as AST level in serum at 33.7 umol/kg, po administered for 28 days; format: organism-based; settings: in vivo, 672 h, dose 33.7 µmol/kg, time 28 day
[14] = Toxicity against collagen-induced arthritis Wistar rat model assessed as glutathione level in liver at 33.7 umol/kg, po administered for 28 days; format: organism-based; settings: in vivo, 672 h, dose 33.7 µmol/kg, time 28 day
[15] = Toxicity against collagen-induced arthritis Wistar rat model assessed as decrease in SOD activity in liver at 33.7 umol/kg, po administered for 28 days; format: organism-based; settings: in vivo, 672 h, dose 33.7 µmol/kg, time 28 day
[16] = Toxicity against collagen-induced arthritis Wistar rat model assessed as creatinine level in serum at 33.7 umol/kg, po administered for 28 days; format: organism-based; settings: in vivo, 672 h, dose 33.7 µmol/kg, time 28 day
[17] = Toxicity against collagen-induced arthritis Wistar rat model assessed as uric acid level in serum at 33.7 umol/kg, po administered for 28 days; format: organism-based; settings: in vivo, 672 h, dose 33.7 µmol/kg, time 28 day
[18] = Toxicity against collagen-induced arthritis Wistar rat model assessed as decrease in CAT activity in kidney at 33.7 umol/kg, po administered for 28 days; format: organism-based; settings: in vivo, 672 h, dose 33.7 µmol/kg, time 28 day
[19] = Toxicity against collagen-induced arthritis Wistar rat model assessed as gastric ulceration at 16.8 umol/kg, po administered for 28 days; format: organism-based; settings: in vivo, 672 h, dose 16.8 µmol/kg, time 28 day
[20] = Toxicity against collagen-induced arthritis Wistar rat model assessed as increase in body weight at 16.8 umol/kg, po administered for 28 days; format: organism-based; settings: in vivo, 672 h, at 16.8 µmol/kg, time 28 day
[21] = Toxicity against C57BL/6J mouse assessed as AST level in serum at 506 umol/kg, ip measured after 24 hrs; format: organism-based; settings: in vivo, dose 506 µmol/kg
[22] = Toxicity against C57BL/6J mouse assessed as ALT level in serum at 506 umol/kg, ip measured after 24 hrs; format: organism-based; settings: in vivo, dose 506 µmol/kg
[23] = Toxicity against Sprague-Dawley rat assessed as diarrhea at 10.5 mg/kg, po administered via gavage for 7 days; format: organism-based; settings: in vivo, 168 h, time 7 day
[24] = Toxicity against Sprague-Dawley rat assessed as preservation of integrity of jejunal vili without crypt damage and less glandular structure loss in colon at 10.5 mg/kg, po administered via gavage for 7 days and measured at 2 hrs post-last drug dosage by Hematoxylin-Eosin staining based analysis; format: organism-based; settings: in vivo, 168 h, time 7 day
[25] = Toxicity against Sprague-Dawley rat assessed as apoptosis in intestine at 10.5 mg/kg, po administered via gavage for 7 days and measured at 2 hrs post-last drug dosage by TUNEL immunofluorescence staining; format: organism-based; settings: in vivo, 168 h, time 7 day
[26] = Toxicity against Sprague-Dawley rat assessed as valeric acid and caproic acid in feces at 10.5 mg/kg, po administered via gavage for 7 days and measured at 2 hrs post-last drug dosage; format: organism-based; settings: in vivo, 168 h, time 7 day
[27] = Toxicity against Sprague-Dawley rat assessed as dysbiosis in gut microbiota at 10.5 mg/kg, po administered via gavage for 7 days and measured at 2 hrs post-last drug dosage by 16S rRNA amplicon sequencing based PCA analysis; format: organism-based; settings: in vivo, 168 h, time 7 day
[28] = Toxicity against Sprague-Dawley rat assessed as elevation of beneficial gut probiotics(Prevotellaceae and Erysipelotrichaceae) at 10.5 mg/kg, po administered via gavage for 7 days and measured at 2 hrs post-last drug dosage by Kruskal-Wallis H test; format: organism-based; settings: in vivo, 168 h, time 7 day
[29] = Toxicity against Sprague-Dawley rat assessed as potentially pathogenic bacteria (Clostridiaceae and Peptostreptococcaceae) level at 10.5 mg/kg, po administered via gavage for 7 days and measured at 2 hrs post-last drug dosage by Kruskal-Wallis H test; format: organism-based; settings: in vivo, 168 h, time 7 day
[30] = Cardiotoxicity against Sprague-Dawley rat assessed as LDH level in serum at 14.2 mg/kg, ip administered for 6 days (reference value: 831.8 +/-23.1 U/L); format: toxicity, organism-based; settings: in vivo, 144 h, time 6 day
[31] = Cardiotoxicity against Sprague-Dawley rat assessed as cTnI level in serum at 14.2 mg/kg, ip administered for 6 days (reference value: 1.9 +/-0.2 ng/ml); format: toxicity, organism-based; settings: in vivo, 144 h, time 6 day
[32] = Cardiotoxicity against Sprague-Dawley rat assessed as MDA level in heart at 14.2 mg/kg, ip administered for 6 days; format: toxicity, organism-based; settings: in vivo, 144 h, time 6 day
[33] = Cardiotoxicity against Sprague-Dawley rat assessed as SOD level in heart at 14.2 mg/kg, ip administered for 6 days; format: toxicity, organism-based; settings: in vivo, 144 h, time 6 day
[34] = Cardiotoxicity against Sprague-Dawley rat assessed as striated muscle recovery with reduced vacuolation in heart at 14.2 mg/kg, ip administered for 6 days by Hematoxylin-Eosin staining analysis; format: toxicity, organism-based; settings: in vivo, 144 h, time 6 day
[35] = Cardiotoxicity against Sprague-Dawley rat assessed as myocardial fibrosis at 14.2 mg/kg, ip administered for 6 days by Masson staining analysis; format: toxicity, organism-based; settings: in vivo, 144 h, time 6 day
[36] = Cardiotoxicity against Sprague-Dawley rat assessed as decrease in cleaved caspase-3 level in heart at 14.2 mg/kg, ip administered for 6 days by immunofluorescence staining analysis; format: toxicity, organism-based; settings: in vivo, 144 h, time 6 day
[37] = Cardiotoxicity against Sprague-Dawley rat assessed as increase in Bcl-2 level in heart at 14.2 mg/kg, ip administered for 6 days by immunofluorescence staining analysis; format: toxicity, organism-based; settings: in vivo, 144 h, time 6 day
[38] = target: T1, Prostaglandin G/H synthase 1 (Ovis aries, UniProt P05979); test: Inhibition of ovine COX1 assessed as reduction in PGF2alpha production using arachidonic acid as substrate preincubated with enzyme for 10 mins followed by substrate addition and measured after 2 mins by ELISA
T1 sequence (P05979 whole entry): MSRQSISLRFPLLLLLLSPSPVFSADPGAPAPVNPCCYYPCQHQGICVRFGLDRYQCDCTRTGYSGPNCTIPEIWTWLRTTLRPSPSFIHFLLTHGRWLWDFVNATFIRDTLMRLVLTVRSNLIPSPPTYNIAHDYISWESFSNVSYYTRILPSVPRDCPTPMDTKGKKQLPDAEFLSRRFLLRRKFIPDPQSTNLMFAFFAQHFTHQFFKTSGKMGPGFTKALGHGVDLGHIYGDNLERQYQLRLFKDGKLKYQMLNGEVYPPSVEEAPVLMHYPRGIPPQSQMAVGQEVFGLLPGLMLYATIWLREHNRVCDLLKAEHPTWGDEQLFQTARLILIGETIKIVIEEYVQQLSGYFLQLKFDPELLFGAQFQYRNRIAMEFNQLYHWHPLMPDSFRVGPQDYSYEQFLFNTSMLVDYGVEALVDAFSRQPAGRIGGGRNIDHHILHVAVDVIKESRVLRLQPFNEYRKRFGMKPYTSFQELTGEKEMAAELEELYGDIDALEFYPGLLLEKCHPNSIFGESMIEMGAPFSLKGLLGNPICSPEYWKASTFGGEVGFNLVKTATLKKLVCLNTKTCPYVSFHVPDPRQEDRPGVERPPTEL

[39] = Toxicity against Sprague-Dawley rat assessed as decrease in crypt proliferation at 10.5 mg/kg, po administered via gavage for 7 days and measured at 2 hrs post-last drug dosage by Ki67 immunohistochemistry; format: organism-based; settings: in vivo, 168 h, time 7 day
[40] = Toxicity against collagen-induced arthritis Wistar rat model assessed as gastrointestinal tract damage by measuring ulcer area in stomach at 33.7 umol/kg, po administered for 28 days; format: organism-based; settings: in vivo, 672 h, at 33.7 µmol/kg, time 28 day
[41] = Toxicity against collagen-induced arthritis Wistar rat model assessed as gastric ulcer area at 16.8 umol/kg, po administered for 28 days; format: organism-based; settings: in vivo, 672 h, at 16.8 µmol/kg, time 28 day
[42] = Cardiotoxicity against Sprague-Dawley rat assessed as LDH level in serum at 13.5 mg/kg, ip administered for 6 days (reference value: 831.8 +/-23.1 U/L); format: toxicity, organism-based; settings: in vivo, 144 h, time 6 day
[43] = Oral bioavailability in Wistar rat at 10 mg/kg; format: ADME, organism-based; settings: in vivo

## O=C([S-])Cc1ccccc1Nc1c(Cl)cccc1Cl.[Na+]
[1]
  Stability: Stable
[2]
  Stability: Stable
[3]
  half-life: 1.45 h
[4]
  Stability: 2330 ng/mL
[5]
  Drug metabolism: 942.7 ng/mL
[6]
  Drug metabolism: 9755 ng/mL
[7]
  bioavailability: 80%
Rattus norvegicus [8]
  Activity: Active
Rattus norvegicus [9]
  Activity: Active
Rattus norvegicus [10]
  Activity: Active
[11]
  Activity: 8%
[12]
  Activity: Non-toxic
[13]
  Activity: 50.2 U/L
[14]
  Activity: 1.2 µg/mg
[15]
  Activity: Non-toxic
[16]
  Activity: 313.9 µmol/L
[17]
  Activity: 123.9 µmol/L
[18]
  Activity: Non-toxic
[19]
  Activity: Non-toxic
[20]
  Activity: 8%
[21]
  Activity: 66.5 U/L
[22]
  Activity: 45.9 U/L
[23]
  Activity: Non-toxic
[24]
  Activity: Non-toxic
[25]
  Activity: Non-toxic
[26]
  Activity: Non-toxic
[27]
  Activity: Non-toxic
[28]
  Activity: Non-toxic
[29]
  Activity: Non-toxic
[30]
  Activity: 1165 U/L
[31]
  Activity: 2.7 ng/mL
[32]
  Activity: Non-toxic
[33]
  Activity: Non-toxic
[34]
  Activity: Non-toxic
[35]
  Activity: Non-toxic
[36]
  Activity: Non-toxic
[37]
  Activity: Non-toxic
[38]
  IC50: 35.9 nM
[39]
  Activity: Non-toxic

## O=C(O)Cc1ccccc1Nc1c(Cl)cccc1Cl [DICLOFENAC]
Rattus norvegicus [8]
  Activity: Active
Rattus norvegicus [9]
  Activity: Active
Rattus norvegicus [10]
  Activity: Active
[40]
  Activity: 0.42%
[13]
  Activity: 75.3 U/L
[14]
  Activity: 0.8 µg/mg
[16]
  Activity: 342.6 µmol/L
[17]
  Activity: 165.6 µmol/L
[41]
  Activity: 0.09%
[21]
  Activity: 128.6 U/L
[22]
  Activity: 76.9 U/L
[42]
  Activity: 2249 U/L
[43]
  bioavailability: 75%
